According to US8030498B2, “Benzoylpyrazole compounds and herbicides containing them” (Ishihara Sangyo Kaisha, Ltd., priority 2005, dated 2011):

Legend:
[1] = system: greenfoxtail (Setaria viridis L.); experiment: Test Example 1: foliar treatment, growth inhibition rate, greenfoxtail; format: in vivo; conditions: 31 g/ha active ingredient, visually observed 17th to 23rd day after application
Summary of the method: (§1)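 Seeds were sown in upland field soil in pots. At the target leaf stage (corn 2.0–3.5; greenfoxtail 1.0–3.0; rice 1.0–2.5; wheat 1.7–3.4), the formulated compound, diluted at a water volume of 500 L/ha with 0.1 vol % spreader, was applied by small sprayer. Plants were rated by eye on days 17–23.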

[2] = system: velvetleaf (Abutilon theophrasti MEDIC.); experiment: Test Example 1: foliar treatment, growth inhibition rate, velvetleaf; format: in vivo; conditions: 31 g/ha active ingredient, visually observed 17th to 23rd day after application
Summary of the method: (§2)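 Visual scoring of growth inhibition, 0% (untreated) to 100% (complete kill), on days 17–23 following post-emergence spray of formulated compound in water (500 L/ha, 0.1 vol % spreader); plants treated at set leaf stages, e.g. corn 2.0–3.5, wheat 1.7–3.4.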

rice = experiment: Test Example 2: soil application on the day after sowing, growth inhibition rate, rice; format: in vivo, Oryza sativa L.; conditions: 250 g/ha active ingredient, observed on 19th to 24th day
Summary of the method: (§3)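 Pre-emergence soil treatment: one day post-sowing in upland soil, compound formulations at set active-ingredient rates were applied in 500 L/ha water. Visual rating of growth inhibition (0% untreated-equivalent to 100% complete kill) followed on days 19–24 after application.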

[3] = system: prickly sida (Sida spinosa L.); experiment: Test Example 1: foliar treatment, growth inhibition rate, prickly sida; format: in vivo; conditions: 31 g/ha active ingredient, visually observed 17th to 23rd day after application
Summary of the method: as §2

[4] = system: soybean (Glycine max Merr.); experiment: Test Example 1: foliar treatment, growth inhibition rate, soybean; format: in vivo; conditions: 31 g/ha active ingredient, visually observed 17th to 23rd day after application
Summary of the method: as §2

wheat = experiment: Test Example 2: soil application on the day after sowing, growth inhibition rate, wheat; format: in vivo, Triticum spp.; conditions: 250 g/ha active ingredient, observed on 19th to 24th day
Summary of the method: as §3

[5] = system: crabgrass (Digitaria sanguinalis L.); experiment: Test Example 1: foliar treatment, growth inhibition rate, crabgrass; format: in vivo; conditions: 31 g/ha active ingredient, visually observed 17th to 23rd day after application
Summary of the method: as §2

greenfoxtail = experiment: Test Example 2: soil application on the day after sowing, growth inhibition rate, greenfoxtail; format: in vivo, Setaria viridis L.; conditions: 250 g/ha active ingredient, observed on 19th to 24th day
Summary of the method: as §3

crabgrass = experiment: Test Example 2: soil application on the day after sowing, growth inhibition rate, crabgrass; format: in vivo, Digitaria sanguinalis L.; conditions: 250 g/ha active ingredient, observed on 19th to 24th day
Summary of the method: as §3

prickly sida = experiment: Test Example 2: soil application on the day after sowing, growth inhibition rate, prickly sida; format: in vivo, Sida spinosa L.; conditions: 250 g/ha active ingredient, observed on 19th to 24th day
Summary of the method: as §3

wheat (Triticum spp.) = experiment: Test Example 1: foliar treatment, growth inhibition rate, wheat; format: in vivo; conditions: 31 g/ha active ingredient, visually observed 17th to 23rd day after application
Summary of the method: as §1

[6] = system: redroot pigweed (Amaranthus retroflexus L.); experiment: Test Example 1: foliar treatment, growth inhibition rate, redroot pigweed; format: in vivo; conditions: 31 g/ha active ingredient, visually observed 17th to 23rd day after application
Summary of the method: as §2

soybean = experiment: Test Example 2: soil application on the day after sowing, growth inhibition rate, soybean; format: in vivo, Glycine max Merr.; conditions: 250 g/ha active ingredient, observed on 19th to 24th day
Summary of the method: as §3

velvetleaf = experiment: Test Example 2: soil application on the day after sowing, growth inhibition rate, velvetleaf; format: in vivo, Abutilon theophrasti MEDIC.; conditions: 250 g/ha active ingredient, observed on 19th to 24th day
Summary of the method: as §3

corn = experiment: Test Example 2: soil application on the day after sowing, growth inhibition rate, corn; format: in vivo, Zea mays L.; conditions: 250 g/ha active ingredient, observed on 19th to 24th day
Summary of the method: as §3

[7] = system: barnyardgrass (Echinochloa crus-galli L.); experiment: Test Example 1: foliar treatment, growth inhibition rate, barnyardgrass; format: in vivo; conditions: 31 g/ha active ingredient, visually observed 17th to 23rd day after application
Summary of the method: as §2

barnyardgrass = experiment: Test Example 2: soil application on the day after sowing, growth inhibition rate, barnyardgrass; format: in vivo, Echinochloa crus-galli L.; conditions: 250 g/ha active ingredient, observed on 19th to 24th day
Summary of the method: as §3

rice (Oryza sativa L.) = experiment: Test Example 1: foliar treatment, growth inhibition rate, rice; format: in vivo; conditions: 31 g/ha active ingredient, visually observed 17th to 23rd day after application
Summary of the method: as §1

corn (Zea mays L.) = experiment: Test Example 1: foliar treatment, growth inhibition rate, corn; format: in vivo; conditions: 31 g/ha active ingredient, visually observed 17th to 23rd day after application
Summary of the method: as §1

redroot pigweed = experiment: Test Example 2: soil application on the day after sowing, growth inhibition rate, redroot pigweed; format: in vivo, Amaranthus retroflexus L.; conditions: 250 g/ha active ingredient, observed on 19th to 24th day
Summary of the method: as §3

CCSC(=O)Oc1c(C(=O)c2ccc(S(C)(=O)=O)c(COC3CCOC3)c2C)cnn1C (stereo not shown) [compound 223]
Growth inhibition rate (%) Greenfoxtail [1]: 90% | Growth inhibition rate (%) Velvetleaf [2]: 95% | Growth inhibition rate (%) Rice (rice): 40% | Growth inhibition rate (%) Prickly sida [3]: 70% | Growth inhibition rate (%) Soybean [4]: 100% | Growth inhibition rate (%) Wheat (wheat): 0% | Growth inhibition rate (%) Crabgrass [5]: 100% | Growth inhibition rate (%) Greenfoxtail (greenfoxtail): 70% | Growth inhibition rate (%) Crabgrass (crabgrass): 100% | Growth inhibition rate (%) Prickly sida (prickly sida): 60% | Growth inhibition rate (%) Wheat (wheat (Triticum spp.)): 0% | Growth inhibition rate (%) redroot pigweed [6]: 90% | Growth inhibition rate (%) Soybean (soybean): 0% | Growth inhibition rate (%) Velvetleaf (velvetleaf): 80% | Growth inhibition rate (%) Corn (corn): 0% | Growth inhibition rate (%) Barnyardgrass [7]: 100% | Growth inhibition rate (%) Barnyardgrass (barnyardgrass): 70% | Growth inhibition rate (%) Rice (rice (Oryza sativa L.)): 70% | Growth inhibition rate (%) Corn (corn (Zea mays L.)): 0% | Growth inhibition rate (%) redroot pigweed (redroot pigweed): 90%

CCCCCCCc1c(S(C)(=O)=O)ccc(C(=O)c2cnn(C)c2OC(=O)SCC)c1C [compound 225]
Growth inhibition rate (%) Greenfoxtail [1]: 20% | Growth inhibition rate (%) Velvetleaf [2]: 0% | Growth inhibition rate (%) Rice (rice): 0% | Growth inhibition rate (%) Prickly sida [3]: 0% | Growth inhibition rate (%) Soybean [4]: 50% | Growth inhibition rate (%) Wheat (wheat): 0% | Growth inhibition rate (%) Crabgrass [5]: 0% | Growth inhibition rate (%) Greenfoxtail (greenfoxtail): 0% | Growth inhibition rate (%) Crabgrass (crabgrass): 0% | Growth inhibition rate (%) Prickly sida (prickly sida): 0% | Growth inhibition rate (%) Wheat (wheat (Triticum spp.)): 0% | Growth inhibition rate (%) redroot pigweed [6]: 0% | Growth inhibition rate (%) Soybean (soybean): 0% | Growth inhibition rate (%) Velvetleaf (velvetleaf): 0% | Growth inhibition rate (%) Corn (corn): 0% | Growth inhibition rate (%) Barnyardgrass [7]: 30% | Growth inhibition rate (%) Barnyardgrass (barnyardgrass): 0% | Growth inhibition rate (%) Rice (rice (Oryza sativa L.)): 0% | Growth inhibition rate (%) Corn (corn (Zea mays L.)): 0% | Growth inhibition rate (%) redroot pigweed (redroot pigweed): 30%
